Read-outs that look alike come from different tables or passages of the source. Marks after values point to notes of the source that are not given here. Blank lines part the entries; values can stand above or below the compound they belong to.
Columns and labels:
[1] = system: intracranial models in rodents; conditions: syngeneic and xenograft models, single agent and in combination with TMZ; cited from earlier work
[2] = system: human glioma cell lines; conditions: single agent and in combination with TMZ; cited from earlier work
[3] = system: systemic solid tumors; conditions: cited from earlier work
[4] = system: P-glycoprotein efflux pump; conditions: cited from earlier work
[5] = system: glioma; conditions: PAC-1 in combination with TMZ and radiation; cited from earlier work
[6] = system: cytochrome P450 isozymes (CYP) 2C19, 2D6, and 3A4; assay: In vitro studies of hepatic metabolism pathways; assay type: in vitro ADME; conditions: preliminary evidence from in vitro studies (unpublished); CYP 2C19, 2D6, 3A4
[7] = Plasma pharmacokinetics of PAC-1 and TMZ (LC-MS/MS, non-compartmental analysis); assay type: in vivo, human; conditions: for AUC(0-inf) / CL/F / Cmax / Tmax / half-life: human, plasma, po; for AUC(0-inf): read-out: AUC0-∞, geometric mean (geometric CV%); for CL/F: read-out: CL/F, geometric mean (geometric CV%) (converted); for Cmax: read-out: Cmax, geometric mean (geometric CV%); for Tmax: read-out: Tmax, median (range); for half-life: read-out: t1/2-λ, geometric mean (geometric CV%) (converted)
Method: Pharmacokinetics (PK) were assessed in each dose cohort for PAC-1 following doses administered on days 7 (without TMZ) and 12 (with TMZ) of the first cycle and TMZ on day 12 of cycle 1. Both drugs were administered under fasting conditions in the morning for PAC-1 and morning or evening for TMZ. To facilitate the PK study and amplify any PK interaction between drugs, the administration of TMZ was standardized to occur in the morning on cycle 1, day 12 two hours before PAC-1. Plasma samples were collected on the mornings of days 7 and 12 of cycle 1 prior to oral ingestion of TMZ (day 12 only), 1 hour (day 12) or immediately (day 7) before administration of PAC-1 and at 0.5, 1, 2, 4, 6, 8, 10, and 24 hours after ingestion of PAC-1 (both days). The PAC-1 and TMZ concentrations in plasma were determined by validated high-performance liquid chromatography and tandem mass spectrometry (LC-MS/MS) assays. Non-compartmental analysis of the PAC-1 and TMZ plasma concentration-time data was performed using WinNonlin version 8.1 (Certara. L.P., Princeton, NJ). The analysis occurred at steady state for PAC-1 and non-steady state conditions for TMZ. Parameters included: maximum plasma concentration (Cmax), time at Cmax (Tmax), minimum plasma concentration at steady-state (Css,min), area under the PAC-1 plasma concentration-time curve over the steady-state dosing interval (AUC0-τ,ss), area under the TMZ plasma concentration-time curve from time zero to infinity (AUC0-∞), oral clearance (CL/F), volume of distribution (V/F), and terminal phase half-life (t1/2).
The PK parameters were logarithmically (natural) transformed and Css-max, Css-min, and AUC0-τ,ss normalized for a 500 mg dose across dose groups for the analysis by multiplying the parameter by the quotient of 500 mg divided by the actual dose. […] Lack of interaction was concluded when the 90% CI for the ratio was contained within the conventional bioequivalence range of 0.80 to 1.25.

[8] = parameters: method as in earlier work; conditions: animal studies and a single clinical trial; ref 1-3 (supplement list); cited from earlier work
[9] = mice; consistent with cLogBB prediction models; cited from earlier work
[10] = PAC-1 375 mg/day oral, Cycle 1 Day 7 (alone)
[11] = PAC-1 375 mg/day oral, Cycle 1 Day 12 (with TMZ)
[12] = PAC-1 500 mg/day oral, Cycle 1 Day 7 (alone)
[13] = PAC-1 500 mg/day oral, Cycle 1 Day 12 (with TMZ)
[14] = PAC-1 625 mg/day oral, Cycle 1 Day 7 (alone)
[15] = PAC-1 625 mg/day oral, Cycle 1 Day 12 (with TMZ)
[16] = PAC-1, Cycle 1 Day 12 (with TMZ)/Cycle 1 Day 7 (alone)
[17] = PAC-1, Cycle 1 Day 12 (with TMZ)/Cycle 1 Day 7 (alone), normalized to 500 mg
[18] = 150 mg/m2, TMZ 150 mg/m^2 oral with PAC-1 375 mg/day
[19] = 150 mg/m2, TMZ 150 mg/m^2 oral with PAC-1 500 mg/day
[20] = 150 mg/m2, TMZ 150 mg/m^2 oral with PAC-1 625 mg/day

- pathways of hepatic metabolism [6]: possible pathways of hepatic metabolism
- increase in PAC-1 CL/F with dexamethasone co-administration ([7]; 375 and 500 mg/day groups): approximately 18%
- AUCss,0-τ, geometric mean (geometric CV%) [7, 10]: 23434 (12.0) h*ng/ml
- CL/F, geometric mean (geometric CV%) [7, 10]: 185 (26.6) ml/h/kg
- Cmax, geometric mean (geometric CV%) [7, 10]: 1728 (19.6) ng/ml
- Css-min, geometric mean (geometric CV%) [7, 10]: 647.8 (11.0) ng/ml
- Tmax, median (range) [7, 10]: 3.00 (1.98-6.00) h
- V/F, geometric mean (geometric CV%) [7, 10]: 6.1 (36.1) L/kg
- AUCss,0-τ, geometric mean (geometric CV%) [7, 11]: 22519 (13.8) h*ng/ml
- CL/F, geometric mean (geometric CV%) [7, 11]: 193 (32.9) ml/h/kg
- Cmax, geometric mean (geometric CV%) [7, 11]: 1802 (19.7) ng/ml
- Css-min, geometric mean (geometric CV%) [7, 11]: 525.4 (12.3) ng/ml
- Tmax, median (range) [7, 11]: 3.00 (1.98 - 9.83) h
- V/F, geometric mean (geometric CV%) [7, 11]: 5.4 (27.3) L/kg
- t1/2-λ, geometric mean (geometric CV%) [7, 11]: 20.0 (12.0) h
- AUCss,0-τ, geometric mean (geometric CV%) [7, 12]: 32823 (28.0) h*ng/ml
- CL/F, geometric mean (geometric CV%) [7, 12]: 203 (38.1) ml/h/kg
- Cmax, geometric mean (geometric CV%) [7, 12]: 3026 (34.0) ng/ml
- Css-min, geometric mean (geometric CV%) [7, 12]: 776.8 (27.9) ng/ml
- Tmax, median (range) [7, 12]: 2.34 (0.50- 5.92) h
- V/F, geometric mean (geometric CV%) [7, 12]: 5.1 (53.0) L/kg
- t1/2-λ, geometric mean (geometric CV%) [7, 12]: 17.6 (18.9) h
- AUCss,0-τ, geometric mean (geometric CV%) [7, 13]: 34274 (13.2) h*ng/ml
- CL/F, geometric mean (geometric CV%) [7, 13]: 194 (26.0) ml/h/kg
- Cmax, geometric mean (geometric CV%) [7, 13]: 2938 (32.2) ng/ml
- Css-min, geometric mean (geometric CV%) [7, 13]: 770.0 (19.6) ng/ml
- Tmax, median (range) [7, 13]: 2.01 (1.92 - 3.07) h
- V/F, geometric mean (geometric CV%) [7, 13]: 5.0 (40.3) L/kg
- t1/2-λ, geometric mean (geometric CV%) [7, 13]: 17.9 (31.1) h
- AUCss,0-τ, geometric mean (geometric CV%) [7, 14]: 24634 (45.2) h*ng/ml
- CL/F, geometric mean (geometric CV%) [7, 14]: 322 (38.0) ml/h/kg
- Cmax, geometric mean (geometric CV%) [7, 14]: 1876 (47.5) ng/ml
- Css-min, geometric mean (geometric CV%) [7, 14]: 565.9 (47.4) ng/ml
- Tmax, median (range) [7, 14]: 1.98 (0.82 – 2.00) h
- V/F, geometric mean (geometric CV%) [7, 14]: 8.7 (40.6) L/kg
- t1/2-λ, geometric mean (geometric CV%) [7, 14]: 18.7 (42.9) h
- AUCss,0-τ, geometric mean (geometric CV%) [7, 15]: 21854 (39.7) h*ng/ml
- CL/F, geometric mean (geometric CV%) [7, 15]: 363 (31.2) ml/h/kg
- Cmax, geometric mean (geometric CV%) [7, 15]: 2124 (57.9) ng/ml
- Css-min, geometric mean (geometric CV%) [7, 15]: 480.0 (40.4) ng/ml
- Tmax, median (range) [7, 15]: 1.03 (1.00 - 4.17) h
- V/F, geometric mean (geometric CV%) [7, 15]: 9.7 (17.0) L/kg
- t1/2-λ, geometric mean (geometric CV%) [7, 15]: 18.5 (32.9) h
- PK interactions between PAC-1 and TMZ ([7]; PAC-1 375, 500 or 625 mg/day with TMZ 150 mg/m^2): did not identify PK interactions
- CL/F, Geometric Least-Square Mean Ratio (90%CI) [7, 16]: 1.07 (0.98, 1.17)
- t1/2-λ, Geometric Least-Square Mean Ratio (90%CI) [7, 16]: 1.04 (0.90, 1.22)
- AUCss,0-τ, Geometric Least-Square Mean Ratio (90%CI) [7, 17]: 0.93 (0.85, 1.02) ^†
- Cmax, Geometric Least-Square Mean Ratio (90%CI) [7, 17]: 1.02 (0.85, 1.23) ^†
- Css-min, Geometric Least-Square Mean Ratio (90%CI) [7, 17]: 0.86 (0.80, 0.92) ^†
- dose proportionality of PAC-1 plasma concentrations ([7]; between 375 mg/day and 500 mg/day): increased proportionally
- PAC-1 plasma concentrations below predicted levels ([7]; single subject in the 625 mg group, same without and with TMZ): approximately 70%
- PAC-1 CL/F ([7]; subjects from the 375 and 500 mg/day groups receiving dexamethasone): 3.68 mL/min/kg
Structure (SMILES): C=CCc1cccc(/C=N/NC(=O)CN2CCN(Cc3ccccc3)CC2)c1O [PAC-1, procaspase-activating compound-1]
- activity in intracranial models in rodents [1]: promising activity
- activity against human glioma cell lines [2]: promising activity
- recommended phase 2 dose (RP2D) ([3]; oral single agent PAC-1, patients with systemic solid tumors): 750 mg/day
- relationship between PAC-1 dose and AUC ([3]; single agent, doses up to 750 mg/day): linear relationship
- substrate of the P-glycoprotein efflux pump [4]: not a substrate
- responses in canine cancer patients with glioma [5]: all treated glioma dogs had responses, including one complete response
- extraction, elimination and oral bioavailability [8]: high extraction ratio, hepatically eliminated drug with low and variable oral bioavailability
- blood-brain barrier penetration [9]: significantly penetrate the blood-brain barrier

- V/F, geometric mean (geometric CV%) ([7]; TMZ 150 mg/m^2 oral with PAC-1 375 mg/day): 0.40 (16.7) L/kg
- V/F, geometric mean (geometric CV%) ([7]; TMZ 150 mg/m^2 oral with PAC-1 500 mg/day): 0.44 (15.0) L/kg
- V/F, geometric mean (geometric CV%) ([7]; TMZ 150 mg/m^2 oral with PAC-1 625 mg/day): 0.44 (15.7) L/kg
- AUC(0-inf) [7, 18]: 22800 ng·h/mL
- CL/F [7, 18]: 2.52 mL/min/kg
- Cmax [7, 18]: 7310 ng/mL
- Tmax [7, 18]: 1 h
- half-life [7, 18]: 1.86 h
- AUC(0-inf) [7, 19]: 23800 ng·h/mL
- CL/F [7, 19]: 2.63 mL/min/kg
- Cmax [7, 19]: 7750 ng/mL
- Tmax [7, 19]: 0.98 h
- half-life [7, 19]: 1.93 h
- AUC(0-inf) [7, 20]: 23900 ng·h/mL
- CL/F [7, 20]: 2.67 mL/min/kg
- Cmax [7, 20]: 7630 ng/mL
- Tmax [7, 20]: 1 h
- half-life [7, 20]: 1.92 h
Structure (SMILES): Cn1nnc2c(C(N)=O)ncn2c1=O [temozolomide, reference compound]
- impact of PAC-1 dose on PK parameters of TMZ (mixed effects analyses) ([7]; PAC-1 375, 500, 625 mg/day): did not significantly (p > 0.05) impact any PK parameters of TMZ

From PMC10406430 (Neuro-Oncology Advances, 2023)
